Measurements published in ChEMBL document CHEMBL3217456 (Medchemcomm, 2014).
The source made the active and inactive calls. No cut-off for these calls is given here.

Assays:
Histamine H3 receptor [1] = target: T1, Histamine H3 receptor (Homo sapiens, UniProt Q9Y5N1); test: Antagonist activity at human recombinant histamine H3 receptor expressed in Sf9 cells coexpressing Galphai2,Gbeta1gamma2 and RGS4 assessed as inhibition of histamine-induced […] hydrolysis preincubated for 2 mins before [gamma32P]GTP addition measured after 20 mins by steady-state GTPase activity assay; assay type: functional
T1 sequence (Q9Y5N1 whole entry, the tested form may be a part): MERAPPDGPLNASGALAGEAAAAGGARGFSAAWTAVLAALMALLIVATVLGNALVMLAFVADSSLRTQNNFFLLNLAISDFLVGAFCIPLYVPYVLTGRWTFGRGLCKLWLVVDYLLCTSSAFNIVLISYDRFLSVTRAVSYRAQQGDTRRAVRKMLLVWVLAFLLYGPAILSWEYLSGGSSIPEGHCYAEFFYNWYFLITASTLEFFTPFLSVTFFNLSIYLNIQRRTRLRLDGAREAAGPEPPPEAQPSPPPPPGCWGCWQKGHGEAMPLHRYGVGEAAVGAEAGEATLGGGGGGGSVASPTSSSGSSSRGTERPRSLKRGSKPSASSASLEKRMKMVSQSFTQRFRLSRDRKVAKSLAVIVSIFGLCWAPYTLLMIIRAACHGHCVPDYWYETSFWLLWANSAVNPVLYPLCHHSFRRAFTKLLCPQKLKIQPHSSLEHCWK

Histamine H2 receptor [2] = target: T2, Histamine H2 receptor (Homo sapiens, UniProt P25021); test: (§1) Antagonist activity at human recombinant histamine H2 receptor-Gsalphas fusion protein expressed in Sf9 cells assessed as inhibition of histamine-induced […] hydrolysis preincubated for 2 mins before [gamma32P]GTP addition measured after 20 mins by steady-state GTPase activity assay; assay type: functional
T2 sequence (P25021 whole entry, the tested form may be a part): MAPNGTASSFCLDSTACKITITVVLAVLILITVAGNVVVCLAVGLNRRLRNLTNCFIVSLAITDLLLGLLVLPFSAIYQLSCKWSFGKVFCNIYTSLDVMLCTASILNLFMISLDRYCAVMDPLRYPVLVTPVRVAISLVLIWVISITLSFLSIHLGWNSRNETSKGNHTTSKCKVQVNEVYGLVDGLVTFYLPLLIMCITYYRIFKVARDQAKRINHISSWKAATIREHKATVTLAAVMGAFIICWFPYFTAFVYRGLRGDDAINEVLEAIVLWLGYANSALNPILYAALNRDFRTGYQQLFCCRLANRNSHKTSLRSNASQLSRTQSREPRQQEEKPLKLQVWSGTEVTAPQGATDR

Histamine H1 receptor = Histamine H1 receptor (Cavia porcellus, UniProt P31389); test: Antagonist activity at guinea pig ileum histamine H1 receptor assessed as inhibition of histamine-induced response after 10 to 15 mins; assay type: tissue-based; details: read-out: pA2 (converted)
Sequence of Histamine H1 receptor (P31389 whole entry): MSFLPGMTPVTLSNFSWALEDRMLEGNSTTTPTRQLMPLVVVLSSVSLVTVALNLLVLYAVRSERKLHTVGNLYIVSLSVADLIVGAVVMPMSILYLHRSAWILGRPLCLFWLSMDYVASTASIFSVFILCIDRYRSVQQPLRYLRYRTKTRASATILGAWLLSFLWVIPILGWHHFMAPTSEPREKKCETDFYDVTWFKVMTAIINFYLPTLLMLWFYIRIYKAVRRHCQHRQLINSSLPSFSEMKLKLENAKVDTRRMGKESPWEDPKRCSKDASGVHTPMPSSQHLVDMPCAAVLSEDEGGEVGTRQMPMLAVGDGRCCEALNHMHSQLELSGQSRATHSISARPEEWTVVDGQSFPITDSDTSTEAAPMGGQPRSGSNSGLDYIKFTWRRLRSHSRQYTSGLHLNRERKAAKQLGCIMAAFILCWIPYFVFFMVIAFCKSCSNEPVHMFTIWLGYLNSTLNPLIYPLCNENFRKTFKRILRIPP

Histamine H4 receptor [3] = target: T3, Histamine H4 receptor (Homo sapiens, UniProt Q9H3N8); test: as §1, with “H4 receptor-RGS19” for “H2 receptor-Gsalphas”, “cells coexpressing Galphai2,Gbeta1gamma2” for “cells”; assay type: functional
[4] = target: Histamine H1 receptor (Homo sapiens) (UniProt P35367); test: Intrinsic activity at human recombinant histamine H1 receptor expressed in Sf9 cells coexpressing RGS4 preincubated for 2 mins before [gamma32P]GTP addition measured after 20 mins by steady-state GTPase activity assay relative to histamine
Sequence of Histamine H1 receptor (Homo sapiens) (P35367 whole entry, the tested form may be a part): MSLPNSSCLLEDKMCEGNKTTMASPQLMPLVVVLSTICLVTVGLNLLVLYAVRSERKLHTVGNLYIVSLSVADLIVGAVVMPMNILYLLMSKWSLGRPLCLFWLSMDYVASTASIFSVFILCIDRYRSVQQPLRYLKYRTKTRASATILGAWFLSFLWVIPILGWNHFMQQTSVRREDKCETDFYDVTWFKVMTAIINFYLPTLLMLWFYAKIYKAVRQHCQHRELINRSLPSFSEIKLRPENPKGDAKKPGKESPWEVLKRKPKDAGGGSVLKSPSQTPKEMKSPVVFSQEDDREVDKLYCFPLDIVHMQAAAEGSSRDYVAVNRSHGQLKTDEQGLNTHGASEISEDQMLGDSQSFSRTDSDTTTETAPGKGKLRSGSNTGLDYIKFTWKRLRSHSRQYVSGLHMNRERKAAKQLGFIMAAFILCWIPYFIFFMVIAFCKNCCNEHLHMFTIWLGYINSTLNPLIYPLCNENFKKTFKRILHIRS

[5] = target: Histamine H1 receptor (Homo sapiens) (UniProt P35367); test: Antagonist activity at human recombinant histamine H1 receptor expressed in Sf9 cells coexpressing RGS4 assessed as inhibition of histamine-induced […] hydrolysis preincubated for 2 mins before [gamma32P]GTP addition measured after 20 mins by steady-state GTPase activity assay; assay type: functional
Histamine H2 receptor [6] = target: T2, Histamine H2 receptor; test: Intrinsic activity at human recombinant histamine H2 receptor-Gsalphas fusion protein expressed in Sf9 cells preincubated for 2 mins before [gamma32P]GTP addition measured after 20 mins by steady-state GTPase activity assay relative to histamine
Histamine H3 receptor [7] = target: T1, Histamine H3 receptor; test: Intrinsic activity at human recombinant histamine H3 receptor expressed in Sf9 cells coexpressing Galphai2,Gbeta1gamma2 and RGS4 preincubated for 2 mins before [gamma32P]GTP addition measured after 20 mins by steady-state GTPase activity assay relative to histamine
[8] = target: Histamine H2 receptor (Cavia porcellus) (UniProt P47747); test: Agonist activity at guinea pig histamine H2 receptor assessed as potentiation of histamine-induced response at 30 uM after 30 mins relative to histamine
Sequence of Histamine H2 receptor (Cavia porcellus) (P47747 whole entry, the tested form may be a part): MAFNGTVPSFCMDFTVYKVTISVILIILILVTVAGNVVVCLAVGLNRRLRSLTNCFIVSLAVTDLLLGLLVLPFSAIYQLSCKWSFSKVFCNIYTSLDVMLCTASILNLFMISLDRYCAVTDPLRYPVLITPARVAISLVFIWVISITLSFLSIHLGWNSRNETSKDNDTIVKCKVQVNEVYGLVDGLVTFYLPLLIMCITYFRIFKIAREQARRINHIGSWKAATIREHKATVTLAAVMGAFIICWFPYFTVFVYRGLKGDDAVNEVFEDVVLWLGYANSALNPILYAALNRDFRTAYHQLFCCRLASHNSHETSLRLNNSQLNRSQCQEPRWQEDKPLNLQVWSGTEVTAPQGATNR

Histamine H4 receptor [9] = target: T3, Histamine H4 receptor; test: Intrinsic activity at human recombinant histamine H4 receptor-RGS19 fusion protein expressed in Sf9 cells coexpressing Galphai2,Gbeta1gamma2 preincubated for 2 mins before [gamma32P]GTP addition measured after 20 mins by steady-state GTPase activity assay relative to histamine
[10] = target: Histamine H2 receptor (Cavia porcellus) (UniProt P47747); test: Antagonist activity at guinea pig histamine H2 receptor assessed as reduction of histamine-induced maximal response after 30 mins
Histamine H4 receptor [11] = target: T3, Histamine H4 receptor; test: Agonist activity at human recombinant histamine H4 receptor-RGS19 fusion protein expressed in Sf9 cells coexpressing Galphai2,Gbeta1gamma2 preincubated for 2 mins before [gamma32P]GTP addition measured after 20 mins by steady-state GTPase activity assay
Histamine H2 receptor [12] = target: T4, Histamine H2 receptor (Cavia porcellus, UniProt P47747); test: Antagonist activity at guinea pig histamine H2 receptor assessed as inhibition of histamine-induced response after 30 mins; details: read-out: pA2 (converted)
T4 sequence (P47747 whole entry): as the sequence (P47747 whole entry, the tested form may be a part) above

[13] = target: Histamine H2 receptor (Cavia porcellus) (UniProt P47747); test: Agonist activity at guinea pig histamine H2 receptor assessed as potentiation of histamine-induced response after 30 mins relative to histamine
Histamine H2 receptor [14] = target: T2, Histamine H2 receptor; test: Agonist activity at human recombinant histamine H2 receptor-Gsalphas fusion protein expressed in Sf9 cells preincubated for 2 mins before [gamma32P]GTP addition measured after 20 mins by steady-state GTPase activity assay
Histamine H2 receptor [15] = target: T4, Histamine H2 receptor; test: Agonist activity at guinea pig atrium histamine H2 receptor assessed as potentiation of histamine-induced response after 30 mins; set-up: species or system Cardiac atrium
Histamine H4 receptor [16] = target: T3, Histamine H4 receptor; test: Agonist activity at human recombinant histamine H4 receptor-RGS19 fusion protein expressed in Sf9 cells coexpressing Galphai2,Gbeta1gamma2 assessed as [35S]GTPgammaS binding after 90 mins by liquid scintillation counting; assay type: functional
Histamine H2 receptor [17] = target: T2, Histamine H2 receptor; test: Agonist activity at human recombinant histamine H2 receptor-Gsalphas fusion protein expressed in Sf9 cells assessed as [35S]GTPgammaS binding after 90 mins by liquid scintillation counting; assay type: functional
[18] = target: Histamine H1 receptor (Homo sapiens) (UniProt P35367); details: Sf9
Histamine H3 receptor [19] = target: T1, Histamine H3 receptor; test: Agonist activity at human recombinant histamine H3 receptor expressed in Sf9 cells coexpressing Galphai2,Gbeta1gamma2 and RGS4 assessed as [35S]GTPgammaS binding after 90 mins by liquid scintillation counting; assay type: functional
Histamine H3 receptor [20] = target: T1, Histamine H3 receptor; test: Intrinsic activity at human recombinant histamine H3 receptor expressed in Sf9 cells coexpressing Galphai2,Gbeta1gamma2 and RGS4 assessed as [35S]GTPgammaS binding at 10 uM after 90 mins by liquid scintillation counting relative to histamine; assay type: functional
Histamine H3 receptor [21] = target: T1, Histamine H3 receptor; test: Antagonist activity at human recombinant histamine H3 receptor expressed in Sf9 cells coexpressing Galphai2,Gbeta1gamma2 and RGS4 assessed as inhibition of histamine-induced [35S]GTPgammaS binding after 90 mins by liquid scintillation counting; assay type: functional
Histamine H4 receptor [22] = target: T3, Histamine H4 receptor; test: Antagonist activity at human recombinant histamine H4 receptor-RGS19 fusion protein expressed in Sf9 cells coexpressing Galphai2,Gbeta1gamma2 assessed as inhibition of histamine-induced [35S]GTPgammaS binding after 90 mins by liquid scintillation counting; assay type: functional
Histamine H4 receptor [23] = target: T3, Histamine H4 receptor; test: Intrinsic activity at human recombinant histamine H4 receptor-RGS19 fusion protein expressed in Sf9 cells coexpressing Galphai2,Gbeta1gamma2 assessed as [35S]GTPgammaS binding at 10 uM after 90 mins by liquid scintillation counting relative to histamine; assay type: functional
Histamine H2 receptor [24] = target: T2, Histamine H2 receptor; test: Intrinsic activity at human recombinant histamine H2 receptor-Gsalphas fusion protein expressed in Sf9 cells assessed as [35S]GTPgammaS binding at 10 uM after 90 mins by liquid scintillation counting relative to histamine; assay type: functional
[25] = Selectivity ratio of EC50 for human recombinant histamine H1 receptor expressed in Sf9 cells coexpressing RGS4 to EC50 for human recombinant histamine H4 receptor-RGS19 fusion protein expressed in Sf9 cells coexpressing Galphai2,Gbeta1gamma2
Histamine H2 receptor [26] = target: T2, Histamine H2 receptor; test: Antagonist activity at human recombinant histamine H2 receptor-Gsalphas fusion protein expressed in Sf9 cells assessed as inhibition of histamine-induced [35S]GTPgammaS binding after 90 mins by liquid scintillation counting; assay type: functional
[27] = Selectivity ratio of EC50 for human recombinant histamine H2 receptor-Gsalphas fusion protein expressed in Sf9 cells to EC50 for human recombinant histamine H4 receptor-RGS19 fusion protein expressed in Sf9 cells coexpressing Galphai2,Gbeta1gamma2
[28] = Selectivity ratio of EC50 for human recombinant histamine H3 receptor expressed in Sf9 cells coexpressing Galphai2,Gbeta1gamma2 and RGS4 to EC50 for human recombinant histamine H4 receptor-RGS19 fusion protein expressed in Sf9 cells coexpressing Galphai2,Gbeta1gamma2

Structure (SMILES) | pKb (Histamine H3 receptor [1]) | pKb (Histamine H2 receptor [2]) | Kb (Histamine H1 receptor) [µM] | pKb (Histamine H4 receptor [3]) | Intrinsic activity [4] | pKb [5] | Intrinsic activity (Histamine H2 receptor [6]) | Intrinsic activity (Histamine H3 receptor [7]) | further results
N/C(=N\C(=O)CC(c1ccccc1)c1ccccc1)NCCCn1ccnc1 | < 5 | 5.82 | 2.34 | < 5 | 0.01 | < 5 | -0.07 | -0.07 | –
CC(CC(=O)/N=C(\N)NCCCc1ncc[nH]1)c1ccccc1 (centres undefined) | 5.41 | 5.3 | – | – | 0.09 | < 5 | 0.03 | -0.32 | Emax [8]: 54%; Intrinsic activity (Histamine H4 receptor [9]): 0.35; pD'2 [10]: 4.44; EC50 (Histamine H4 receptor [11]): 2.88 µM; Kb (Histamine H2 receptor [12]): 12.6 µM
CC(CC(=O)/N=C(\N)NCCCc1cccnc1)c1ccccc1 (centres undefined) | < 5 | 5.27 | – | < 5 | – | < 5 | -0.11 | -0.01 | pD'2 [10]: 4.22; Kb (Histamine H2 receptor [12]): > 31.6 µM
CN/C(=N\C#N)NCCCCNc1nc(N)n[nH]1 | – | – | – | – | – | – | – | – | pEC50 (Histamine H4 receptor [16]): inactive; pEC50 (Histamine H2 receptor [17]): inactive; pEC50 [18]: inactive; pEC50 (Histamine H3 receptor [19]): inactive
CN/C(=N\C#N)NCCNc1nccc(N)n1 | – | – | – | – | – | – | – | – | Intrinsic activity (Histamine H3 receptor [20]): -0.16; pEC50 (Histamine H2 receptor [17]): inactive; pEC50 [18]: inactive; pKb (Histamine H3 receptor [21]): < 5; pKb (Histamine H4 receptor [22]): < 5; Intrinsic activity (Histamine H4 receptor [23]): -0.11
N/C(=N\C(=O)CC(c1ccccc1)c1ccccc1)NCCCc1ncn[nH]1 | < 5 | – | 1.62 | – | 0.06 | < 5 | 0.42 | -0.03 | Efficacy [13]: 83%; EC50 (Histamine H2 receptor [14]): 0.407 µM; EC50 (Histamine H2 receptor [15]): 0.204 µM; pEC50 (Histamine H4 receptor [11]): inactive
CN/C(=N\C#N)NCCCNc1ccccn1 | – | – | – | – | – | – | – | – | Intrinsic activity (Histamine H3 receptor [20]): -0.03; pEC50 (Histamine H2 receptor [17]): inactive; pEC50 [18]: inactive; pKb (Histamine H3 receptor [21]): < 5; pKb (Histamine H4 receptor [22]): < 5; Intrinsic activity (Histamine H4 receptor [23]): -0.13
N/C(=N\C(=O)CC(c1ccccc1)c1ccccc1)NCCCc1cn[nH]c1 | < 5 | 5.42 | 2.57 | < 5 | 0.06 | 5.06 | 0.08 | -0.02 | Efficacy [13]: 41%; EC50 (Histamine H2 receptor [15]): 0.363 µM

Second part, led by results:

pKb (Histamine H3 receptor [1]) | pKb (Histamine H2 receptor [2]) | Kb (Histamine H1 receptor) [µM] | pKb (Histamine H4 receptor [3]) | Intrinsic activity [4] | pKb [5] | Intrinsic activity (Histamine H2 receptor [6]) | Intrinsic activity (Histamine H3 receptor [7]) | Structure (SMILES) | further results
< 5 | – | 3.8 | < 5 | – | < 5 | 0.44 | 0.04 | CC(CC(=O)/N=C(\N)NCCCc1cn[nH]c1)c1ccccc1 (centres undefined) | Efficacy [13]: 54%; EC50 (Histamine H2 receptor [14]): 0.24 µM; EC50 (Histamine H2 receptor [15]): 0.468 µM
– | – | – | – | -0.03 | < 5.3 | – | – | Cc1[nH]cnc1CCCCN/C(=N\C#N)NCCSc1ccccc1 | Intrinsic activity (Histamine H3 receptor [20]): -0.65; Intrinsic activity (Histamine H2 receptor [24]): -0.06; EC50 (Histamine H4 receptor [16]): 0.245 µM; Ratio EC50 [25]: > 10; pKb (Histamine H2 receptor [26]): 5.36; Ratio EC50 [27]: > 10; Ratio EC50 [28]: > 10; pKb (Histamine H3 receptor [21]): 5.5; Intrinsic activity (Histamine H4 receptor [23]): 0.37
5.35 | 5.26 | – | – | – | – | 0.04 | -0.46 | CC(CC(=O)/N=C(\N)NCCCc1ncc[nH]1)c1cccs1 (centres undefined) | Intrinsic activity (Histamine H4 receptor [9]): 0.5; EC50 (Histamine H4 receptor [11]): 0.776 µM
